Data on eleven molecules can be found in ChEMBL document CHEMBL1201862, “PubChem BioAssay data set” (2004).

Molecules are shown by their SMILES.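 Test compounds were applied to cells in 96-well plates for 48 hours at 5 doses. GI50 is the concentration that inhibits growth by half.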 Activity calls are given as the source filed them. Cut-off read from the data, not from the text of the source: active = GI50 up to about 1.1 µM and inactive = higher. Where only a bound is given, the exact number is not on record here.

Some test systems named below: CCRF-CEM; EKVX; HCT-15; HOP-62; HT-29; MCF7; MDA-N; MOLT-4; NCI-H522; OVCAR-3; OVCAR-8; RPMI-8226; SF-295; SK-MEL-28; SN12C; SR; SW-620; UACC-257; HL-60; HOP-92.
Common to all, as to assay: NCI anticancer screen, dose series, 48 h

`CC1C(c2ccc3c(c2)OCO3)c2cc3c(cc2OC1N1CCCCC1)OCO3` (stereo not drawn): the GI50 is 35.2 µM (inactive) in the experiment with CCRF-CEM; 66.2 µM (inactive) with EKVX; 50.4 µM in the experiment on HCT-15; > 100 µM (inactive) in the experiment on HOP-62; 57.5 µM (inactive) in the experiment with HT-29; 65.9 µM (inactive) in the experiment on MCF7. Further, the GI50 is 20.8 µM (inactive) in the experiment on MDA-N; 36.7 µM (inactive) in the experiment on MOLT-4; 31.6 µM (inactive) with NCI-H522; 41.6 µM (inactive) in the experiment with OVCAR-3; > 100 µM (inactive) in the experiment with OVCAR-8; 47.9 µM (inactive) in the experiment with RPMI-8226. Besides, the GI50 in the experiment with SF-295 was 30.6 µM (inactive); in the experiment on SK-MEL-28, 54.8 µM (inactive); in the experiment with SN12C, > 100 µM (inactive); with SR, 37.8 µM (inactive); with SW-620, 55 µM (inactive); in the experiment on UACC-257, > 100 µM (inactive).
Regarding `O=C1NN=C(c2ccc(Cl)cc2)CC1C1C(=O)N(c2ccccc2)N=C1c1ccccc1` (stereo not drawn), the GI50 in the experiment on CCRF-CEM is 26.5 µM (inactive); in the experiment on EKVX it was 35 µM (inactive); in the experiment on HCT-15 it was 31.3 µM; in the experiment on HL-60, 37.2 µM (inactive); with HOP-62, 32 µM (inactive); in the experiment with HT-29, 32.9 µM (inactive). Moreover, the GI50 with MCF7 was 40.5 µM (inactive); in the experiment with MDA-N it was 34.8 µM (inactive); with MOLT-4 it was 28.1 µM (inactive); with NCI-H522 it was 23.6 µM (inactive); in the experiment on OVCAR-3 it was 27.5 µM (inactive); in the experiment on OVCAR-8 it was 41.9 µM (inactive). Moreover, the GI50 with RPMI-8226 was 37.1 µM (inactive); with SF-295, 29.9 µM (inactive); with SK-MEL-28, 36.7 µM (inactive); in the experiment with SN12C, 34.4 µM (inactive); with SR, 93.1 µM (inactive); in the experiment with SW-620 it was 30.5 µM (inactive).
As to `CC(C)N/C(=N\C#N)NS(=O)(=O)c1cnccc1NC1CCCCCCC1`, the GI50 with CCRF-CEM is > 100 µM (inactive); in the experiment with EKVX it was > 100 µM (inactive); in the experiment on HCT-15, over 100 µM; with HOP-62, > 100 µM (inactive); in the experiment on HT-29 it was > 100 µM (inactive); with MCF7 it was > 100 µM (inactive). The GI50 is > 100 µM (inactive) in the experiment with MDA-N; > 100 µM (inactive) in the experiment with MOLT-4; > 100 µM (inactive) with NCI-H522; > 100 µM (inactive) with OVCAR-3; > 100 µM (inactive) in the experiment with OVCAR-8; 39.8 µM (inactive) with RPMI-8226. Besides, the GI50 in the experiment on SF-295, with SK-MEL-28, with SN12C, in the experiment with SR, with SW-620 and in the experiment on UACC-257 was > 100 µM (inactive) each time.
On to `Cc1nnc(N2C(=O)C(=Cc3ccc(Cl)cc3)N=C2c2ccc(Cl)cc2)nc1/C=C\c1ccc(N(C)C)cc1`, for which the GI50 with CCRF-CEM was > 100 µM (inactive); in the experiment on EKVX, > 100 µM (inactive); in the experiment with HCT-15, over 100 µM; in the experiment on HL-60 it was 93.8 µM (inactive); with HOP-62, > 100 µM (inactive); in the experiment with HOP-92, > 100 µM (inactive). The GI50 in the experiment with HT-29 was > 100 µM (inactive); in the experiment on MCF7 it was > 100 µM (inactive); with MDA-N, 73.1 µM (inactive); in the experiment with MOLT-4, > 100 µM (inactive); in the experiment with NCI-H522, > 100 µM (inactive); with OVCAR-3 it was > 100 µM (inactive). Moreover, the GI50 was > 100 µM (inactive) with OVCAR-8; 72.3 µM (inactive) with RPMI-8226; > 100 µM (inactive) in the experiment with SF-295; > 100 µM (inactive) in the experiment with SK-MEL-28; > 100 µM (inactive) with SN12C; > 100 µM (inactive) in the experiment with SW-620. Also, the GI50 with UACC-257 was > 100 µM (inactive).
Consider `COc1ccc(-n2c(C)nc3ccc(NC4OCC(OC(C)=O)C(OC(C)=O)C4OC(C)=O)cc3c2=O)cc1` (stereo not drawn), for which the GI50 was > 100 µM (inactive) in the experiment on EKVX; over 100 µM in the experiment with HCT-15; 32.4 µM (inactive) with HL-60; > 100 µM (inactive) in the experiment on HOP-62; > 100 µM (inactive) in the experiment on HT-29; > 100 µM (inactive) in the experiment with MCF7. Also, the GI50 in the experiment with MDA-N was > 100 µM (inactive); in the experiment on MOLT-4, > 100 µM (inactive); in the experiment with NCI-H522 it was > 100 µM (inactive); in the experiment on OVCAR-3, > 100 µM (inactive); in the experiment on OVCAR-8 it was > 100 µM (inactive); with RPMI-8226, 35.9 µM (inactive). The GI50 in the experiment with SF-295, with SK-MEL-28, with SN12C, in the experiment on SR, in the experiment on SW-620 and in the experiment on UACC-257 was > 100 µM (inactive) throughout.
For the molecule `COC(=O)NN(C(=O)OC)c1c(-c2ccccc2)nc(SC)n1N`, the GI50 in the experiment with CCRF-CEM is > 100 µM (inactive); in the experiment on EKVX, > 100 µM (inactive); in the experiment with HCT-15, over 100 µM; with HL-60, > 100 µM (inactive); with HOP-62, > 100 µM (inactive); with MCF7 it was > 100 µM (inactive). Also, the GI50 with MDA-N, with MOLT-4, in the experiment on NCI-H522, with OVCAR-3, in the experiment on OVCAR-8 and in the experiment with RPMI-8226 was > 100 µM (inactive) in each case. In addition, the GI50 in the experiment on SF-295, in the experiment on SK-MEL-28, in the experiment with SN12C, in the experiment with SR, in the experiment on SW-620 and with UACC-257 was > 100 µM (inactive) in each case.
With `C/C(=N/NC(=S)Nc1ccc(C)cc1)c1ccccn1`, the GI50 in the experiment on CCRF-CEM was < 0.0124 µM (active); in the experiment on EKVX, 0.0601 µM (active); in the experiment with HCT-15, 0.0221 µM; with HL-60, < 0.0132 µM (active); in the experiment on HOP-62, 0.029 µM (active); with HOP-92 it was 0.719 µM (active). In addition, the GI50 with HT-29 is < 0.0366 µM (active); in the experiment with MCF7, 0.0146 µM (active); with MDA-N, 1.1 µM (active); with MOLT-4, < 0.0122 µM (active); in the experiment on NCI-H522, 0.12 µM (active); in the experiment on OVCAR-3, 0.0179 µM (active). Further, the GI50 in the experiment with OVCAR-8 was 0.0258 µM (active); in the experiment with RPMI-8226 it was < 0.0156 µM (active); in the experiment with SF-295, 0.193 µM (active); in the experiment on SK-MEL-28, 2.1 µM (inactive); in the experiment on SN12C it was 0.192 µM (active); in the experiment on SW-620 it was < 0.0164 µM (active). Besides, in the experiment on UACC-257, the GI50 was < 0.0163 µM (active).
In the case of `O=C(c1cc2ccccc2[nH]1)N1C2CCC1CN(CCOC(c1ccc(F)cc1)c1ccc(F)cc1)CC2` (stereo not drawn), the GI50 was 6.01 µM (inactive) in the experiment on CCRF-CEM; 8.55 µM (inactive) with EKVX; 3.24 µM with HCT-15; 6.85 µM (inactive) with HL-60; > 100 µM (inactive) in the experiment on HOP-62; > 100 µM (inactive) in the experiment with HOP-92. The GI50 with HT-29 is 23.8 µM (inactive); with MCF7, 7.06 µM (inactive); in the experiment on MDA-N, > 100 µM (inactive); in the experiment with MOLT-4 it was 4.91 µM (inactive); in the experiment on NCI-H522, 18.1 µM (inactive); in the experiment on OVCAR-3 it was 9.02 µM (inactive). The GI50 is > 100 µM (inactive) with OVCAR-8; 9.2 µM (inactive) with RPMI-8226; 9.89 µM (inactive) with SF-295; > 100 µM (inactive) in the experiment with SK-MEL-28; 18.2 µM (inactive) in the experiment on SN12C; > 100 µM (inactive) in the experiment on SW-620. Besides, the GI50 with UACC-257 is 12.5 µM (inactive).
Consider `Nc1c(C(=O)c2ccc(Cl)cc2)[nH]c(NCc2ccccc2)c1C(=S)Nc1ccccc1`, for which the GI50 in the experiment on CCRF-CEM is 2.44 µM (inactive); with EKVX, 7.21 µM (inactive); with HCT-15, 1.79 µM; in the experiment with HL-60, 3.93 µM (inactive); in the experiment on HOP-62, 3.67 µM (inactive); in the experiment with HOP-92, 2.84 µM (inactive). In addition, the GI50 was 1.94 µM (inactive) in the experiment with HT-29; 1.58 µM (inactive) in the experiment on MCF7; 1.73 µM (inactive) in the experiment with MDA-N; 2.58 µM (inactive) in the experiment on MOLT-4; 1.82 µM (inactive) in the experiment with NCI-H522; 6.65 µM (inactive) with OVCAR-3. The GI50 is 1.77 µM (inactive) in the experiment with OVCAR-8; 1.79 µM (inactive) in the experiment on RPMI-8226; 1.83 µM (inactive) in the experiment with SF-295; 1.77 µM (inactive) in the experiment with SK-MEL-28; 4.89 µM (inactive) in the experiment on SN12C; 1.88 µM (inactive) with SW-620. In addition, the GI50 in the experiment with UACC-257 is 1.67 µM (inactive).
On to `CC(C)C1CC(CO)(CNc2nc(N)nc(Cl)c2C=O)C1` (stereo not drawn), for which the GI50 in the experiment on CCRF-CEM was 2.34 µM (inactive); with EKVX, 4.51 µM (inactive); in the experiment on HCT-15 it was 4.43 µM; with HL-60, 1.57 µM (inactive); with HOP-62 it was 18.8 µM (inactive); in the experiment with HOP-92, 2.28 µM (inactive). The GI50 was 2.48 µM (inactive) in the experiment on HT-29; 10.3 µM (inactive) in the experiment on MCF7; 2.85 µM (inactive) in the experiment with MDA-N; 2.15 µM (inactive) with MOLT-4; 0.604 µM (active) in the experiment with NCI-H522; 3.47 µM (inactive) in the experiment on OVCAR-3. The GI50 in the experiment on OVCAR-8 was 2.75 µM (inactive); in the experiment with RPMI-8226, 11 µM (inactive); with SF-295, 16.6 µM (inactive); with SK-MEL-28, 1.88 µM (inactive); in the experiment on SN12C, 3.75 µM (inactive); in the experiment with SW-620, 6.15 µM (inactive). In addition, the GI50 in the experiment on UACC-257 was 2.49 µM (inactive).
Turning to `CSCCCN(CCCSC)CCCSC`, the GI50 in the experiment with CCRF-CEM was 35.5 µM (inactive); in the experiment on EKVX, > 100 µM (inactive); in the experiment on HCT-15, over 100 µM; in the experiment with HL-60 it was 13.5 µM (inactive); with HOP-62, > 100 µM (inactive); in the experiment on HT-29, > 100 µM (inactive). Further, the GI50 in the experiment on MCF7 was > 100 µM (inactive); in the experiment with MDA-N it was > 100 µM (inactive); in the experiment on MOLT-4, 24.2 µM (inactive); in the experiment on NCI-H522 it was 66.7 µM (inactive); with OVCAR-3, > 100 µM (inactive); in the experiment with OVCAR-8, > 100 µM (inactive). The GI50 with SF-295 is > 100 µM (inactive); in the experiment with SK-MEL-28, > 100 µM (inactive); in the experiment on SN12C it was > 100 µM (inactive); with SR it was 10.6 µM (inactive); in the experiment on SW-620, > 100 µM (inactive); in the experiment on UACC-257, > 100 µM (inactive).
